Source: PubChem BioAssay (NCI)
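Each compound was tested at five concentrations against cells in 96-well plates for 48 hours. TGI: total growth inhibition.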 *1 amine or outer side, *2 acyl side, *3 side chain or, on linkers, in order; H or OH if unused. Where a SMILES comes first, the peptide text is derived from it. [ ]: non-standard residue; d: D form. The star is where a group is joined. ξ: configuration not given here. γGlu = O=C(O)[CH](CCC(=O)[*:2])N[*:1]; X22 = O=C(C(CC(O)CO)O[*:1])[*:2]; Ile(3ξ) = CCC(C)[C@H](N)C(=O)O; NMeV = CN[C@H](C(=O)O)C(C)C; NMeA = CN[C@@H](C)C(=O)O; βAla = NCCC(=O)O; NHOH = ON*

Legend:
Experiment in all cases: NCI-60 cell line screen, 48 h
[1] = system: EKVX NSCLC
[2] = system: KM12 colon
[3] = system: LOX IMVI melanoma
[4] = system: MALME-3M melanoma
[5] = system: MCF7 breast
[6] = system: MOLT-4 leukemia
[7] = system: OVCAR-4 ovarian
[8] = system: OVCAR-8 ovarian
[9] = system: RPMI-8226 leukemia
[10] = system: SF-268 CNS
[11] = system: SF-295 CNS
[12] = system: SK-MEL-28 melanoma
[13] = system: SK-MEL-5 melanoma
[14] = system: SNB-19 CNS
[15] = system: T-47D breast
[16] = system: UACC-62 melanoma
[17] = system: UO-31 renal
[18] = system: A498 renal
[19] = system: SR leukemia

Row | SMILES | TGI [1] [µM] | TGI [2] [µM] | TGI [3] [µM] | TGI [4] [µM] | TGI [5] [µM] | TGI [6] [µM] | TGI [7] [µM] | TGI [8] [µM] | TGI [9] [µM] | TGI [10] [µM] | TGI [11] [µM] | TGI [12] [µM] | TGI [13] [µM] | TGI [14] [µM] | TGI [15] [µM] | TGI [16] [µM] | TGI [17] [µM] | TGI [18] [µM] | TGI [19] [µM]
1 | Cc1c(N=Nc2ccc(Cl)cc2)c(C)n(C2OC(CO)C(O)C(O)C2O)c(=S)c1C#N (stereo unspecified) | 93.2 | 54.5 | 33.3 | 46.3 | > 100 | 42.3 | 50.1 | 63.9 | 50.3 | 52.1 | 83.5 | 52.3 | 21.8 | > 100 | > 100 | 30.5 | 57.9 |  | 
2 | COc1ccc(Nc2nc3ccc(C(F)(F)F)cc3nc2C(=O)O)cc1 | > 100 | 70.9 | > 100 | > 100 | > 100 | 98.6 | > 100 | > 100 | 66.5 | > 100 | 89.4 | > 100 | > 100 |  | > 100 | 67.3 |  | 57.2 | 
3 | N#CC1=C(N)OC(c2cccc([N+](=O)[O-])c2)C1(C#N)C#N (stereo unspecified) | 64.6 |  | 28.4 | 49.3 | 48.5 |  |  | 92.8 | 47 | 87 | 73.2 |  | 31.8 | 42.5 | 45.1 | 81.6 | 32.8 | 36.7 | 
4 | COc1c(Br)cc(/C=C(\C#N)c2ccccn2)cc1Br | 50.9 | > 100 |  | > 100 | > 100 | > 100 |  | > 100 | > 100 | > 100 | > 100 | > 100 | > 100 | > 100 |  | 73.8 | > 100 | 9.57 | > 100
5 | CCn1c(O)c(C=Nc2ccccc2)s/c1=N/Nc1nc(-c2ccc(O)c(O)c2)cs1 | > 100 | > 100 | > 100 | > 100 | > 100 | 92.2 | > 100 | > 100 | 46.6 | > 100 | 85.6 | > 100 | > 100 | > 100 |  | > 100 | > 100 |  | 15.9
6 | O=S(=O)(Oc1ccc2ccccc2c1-c1c(OS(=O)(=O)C(F)(F)F)ccc2ccccc12)C(F)(F)F | > 100 | > 100 |  | > 100 | > 100 | > 100 | > 100 | > 100 | > 100 | > 100 | > 100 | > 100 | > 100 | > 100 |  | > 100 | > 100 | > 100 | > 100
7 | Cc1nc2ccc(N)cc2[nH]c1=O | > 100 | > 100 | > 100 | > 100 |  | > 100 | > 100 | > 100 | > 100 |  | > 100 |  | > 100 | > 100 |  | > 100 | > 100 | > 100 | 
8 | Cc1ccc(S(=O)(=O)Oc2nc3nc4ccccc4nc3nc2OS(=O)(=O)c2ccc(C)cc2)cc1 | > 100 | > 100 |  | > 100 | > 100 |  |  | > 100 | > 100 | > 100 | > 100 | > 100 | > 100 | > 100 |  | > 100 | > 100 | > 100 | 
9 | C[N+]1(C)C[C@@H](O)C[C@@H]1C(=O)[O-] | > 100 | > 100 | > 100 | > 100 |  | > 100 | > 100 | > 100 | > 100 | > 100 | > 100 | > 100 |  | > 100 |  | > 100 | > 100 | > 100 | > 100
10 | CCOC(=O)CNC(=O)C(CCC(=O)NO)NC(=O)CCC(N)C(=O)O (stereo unspecified) (γGlu-Glu(NHOH)-Gly-OEt; configuration not given here) | > 100 | > 100 | > 100 |  | > 100 | > 100 | > 100 | > 100 | > 100 | > 100 | > 100 | > 100 | > 100 | > 100 | > 100 | > 100 | > 100 | > 100 | 
11 | N#CC1CCCCC1NC1(C#N)CCCCC1 (stereo unspecified) | > 100 | > 100 | > 100 | > 100 |  | > 100 |  | > 100 | > 100 | > 100 | > 100 | > 100 | > 100 | > 100 |  | > 100 | > 100 | > 100 | 
12 | COC1=CC(=O)C2C(C1=O)C(c1ccc(Cl)cc1)[C@@H]2C (stereo partly specified) | 71.4 | > 100 | > 100 | 46 |  | 81.7 | > 100 | 67.4 | > 100 | 92.7 | > 100 | > 100 | 41.2 | 80.3 |  | 63 | 63.6 | > 100 | 
13 | O=c1c2cc(S(=O)(=O)Nc3ccc(Cl)cc3Cl)ccc2ncn1NS(=O)(=O)c1cccc2ccccc12 | > 100 | > 100 | 50 | > 100 | > 100 | 85.5 | > 100 | > 100 | > 100 | > 100 | > 100 | > 100 |  | > 100 |  | > 100 | 62.3 |  | 70.6
14 | COc1c(C)c(O)c2c(c1C)OC(c1ccccc1)CC2=O (stereo unspecified) | > 100 | > 100 | > 100 | 83.1 |  | > 100 | > 100 | > 100 | > 100 | > 100 | > 100 | > 100 |  |  |  | > 100 | > 100 | > 100 | 75.5
15 | CCOC(=O)c1c2ccc(/C=C/c3ccccc3)ccc-2c(C(=O)OCC)c1N | > 100 | > 100 | > 100 | > 100 |  | > 100 | > 100 |  |  | > 100 | > 100 | > 100 | > 100 | > 100 |  | > 100 | > 100 | 99.8 | > 100
16 | Cc1cc(-c2cscn2)c(O)c([N+](=O)[O-])c1 | > 100 |  | > 100 | > 100 | > 100 |  | > 100 | > 100 | > 100 |  | > 100 |  | > 100 | > 100 |  | > 100 | > 100 | 99.7 | 
17 | Cc1cc2cc3ccccc3cc2c(=O)[nH]1 | > 10 | > 10 | > 10 |  | > 10 | > 10 | > 10 | > 10 |  | > 10 | > 10 |  |  | > 10 |  | > 10 | > 10 |  | > 10
18 | CCSc1nnc(-c2ccccc2)nc1Cc1ccc(OC)cc1 | > 100 | > 100 | > 100 | > 100 |  | > 100 | > 100 | > 100 | > 100 | > 100 | > 100 | > 100 |  | > 100 |  | > 100 | > 100 | > 100 | > 100
19 | Cc1c/c(=N/NC(=O)c2ccncc2)n2nc(N)sc2n1 | > 100 | > 100 | > 100 |  | > 100 | > 100 | > 100 | > 100 | > 100 |  | > 100 | > 100 | > 100 | > 100 |  | > 100 | > 100 | > 100 | > 100
20 | NNc1ncc2c(n1)-c1ccccc1OC2 | > 100 | > 100 | > 100 | > 100 | > 100 | > 100 | > 100 | > 100 | > 100 | > 100 | > 100 | > 100 | > 100 | > 100 |  | > 100 | > 100 |  | > 100
21 | CCOC(=O)C1=C(c2ccccc2)N(C(C)=O)Cc2ccccc21 | > 100 | 30.3 | 33.2 | 46.7 |  | 34.8 | > 100 | > 100 | 38.7 | 64.8 | 37.8 | 36.6 | 25.1 | > 100 |  | 25.5 | > 100 |  | 41.7
22 | Clc1ccc(-c2nc3ccc4ccccc4c3c3c2CCCC3)cc1 | > 100 | > 100 |  | > 100 | > 100 | > 100 |  | > 100 | > 100 | > 100 | > 100 | > 100 | > 100 | > 100 |  | > 100 | > 100 | > 100 | 
23 | CCCCCCC1CC(=O)C1(Cl)Cl (stereo unspecified) | > 100 | 55.7 | 44.6 | 38.8 | 63.7 | 52.1 | > 100 | 59.5 | 2.48 | 66.5 | > 100 |  | 31.2 | > 100 | > 100 | 47.8 | 34.2 |  | 
24 | CC(=O)NC(CCCNC(=O)OCc1ccccc1)C(=O)O (stereo unspecified) | > 100 | > 100 | > 100 | > 100 |  | > 100 | > 100 | > 100 | > 100 | > 100 | > 100 | > 100 | > 100 | > 100 |  | > 100 | > 100 | > 100 | 
25 | CSc1nc2nc(C(O)C(O)C(O)CO)cnc2c(=O)[nH]1 (stereo unspecified) | > 100 | > 100 | > 100 | > 100 |  | > 100 |  | > 100 | > 100 | > 100 | > 100 | > 100 | > 100 | > 100 |  | > 100 | > 100 | > 100 | 
26 | C=C(C)CC(C)(c1cc2ccccc2n1C)N1CCOCC1 (stereo unspecified) | > 100 | > 100 | > 100 | > 100 |  | > 100 | > 100 | > 100 |  | > 100 | > 100 | > 100 | > 100 | > 100 |  | > 100 | > 100 |  | > 100
27 | CCC(C)[C@@H]1NC(=O)[C@@H]2CCCN2C(=O)C(CC(O)CO)OC(=O)CCNC(=O)[C@H](C)N(C)C(=O)[C@H](C(C)C)N(C)C1=O (stereo partly specified) (cyclo([Ile(3ξ)][NMeV][NMeA][βAla][X22]P)) |  | > 100 | > 100 | > 100 |  | > 100 | > 100 | > 100 | > 100 | > 100 | > 100 | > 100 | > 100 | > 100 |  | > 100 | > 100 | > 100 | > 100
28 | CCOC(=O)CC(NCc1ccc(N=Cc2nc3ccc(C(F)(F)F)cc3nc2-c2ccccc2)cc1)C(=O)OCC (stereo unspecified) | > 100 | > 100 | > 100 | > 100 |  | > 100 | > 100 | > 100 | > 100 | > 100 | > 100 | > 100 | > 100 | > 69.8 |  | 68.3 | > 100 | > 100 | > 100
29 | COC(=O)C(Cc1nc2ccccc2[nH]c1=O)C(=O)C(=O)Nc1ccc(F)cc1 (stereo unspecified) | > 100 | > 100 | > 100 | 79.5 |  | > 100 | > 100 | 38.6 |  | 56.4 | > 100 | 89.1 | > 100 | > 100 |  | 67.8 | > 100 |  | > 100
